The values that follow come from patent EP0246888A2, “Dopamine-beta-hydroxylase inhibitors” (SMITHKLINE BECKMAN CORPORATION, priority 1986, dated 1987).

Experiment [1] has as its system spontaneously hypertensive rats. Briefly: mean arterial blood pressure in spontaneously hypertensive rats. The class given is in vivo. The procedure:
Further, spontaneously hypertensive rats were treated with a suspension or solution of 1-benzyl-1,2,4-triazole-5-thiol at a dose of 100 mg/kg orally, and mean arterial blood pressure was monitored for 260 minutes using indwelling cannulae positioned in the tail arteries. When compared to vehicle-treated controls, the compound-treated animals' blood pressure was approximately 5% below that of controls 20 minutes following treatment. The compound-treated animals' blood pressure continued to fall until it reached its nadir of approximately 20% less than controls at 240 minutes after compound treatment. Similarly, 1-(3ʹ-fluorobenzyl)-1,2,4-triazole-5-thiol produced approximate 20% blood pressure reductions one hour after a 50 mg/kg intraperitoneal dose. The blood pressure of the treated animals remained approximately 20% less than controls when blood pressure monitoring was terminated.

For the next experiment, the target named is T1, DBH (Homo sapiens, UniProt P09172).
T1 sequence (P09172 1-617): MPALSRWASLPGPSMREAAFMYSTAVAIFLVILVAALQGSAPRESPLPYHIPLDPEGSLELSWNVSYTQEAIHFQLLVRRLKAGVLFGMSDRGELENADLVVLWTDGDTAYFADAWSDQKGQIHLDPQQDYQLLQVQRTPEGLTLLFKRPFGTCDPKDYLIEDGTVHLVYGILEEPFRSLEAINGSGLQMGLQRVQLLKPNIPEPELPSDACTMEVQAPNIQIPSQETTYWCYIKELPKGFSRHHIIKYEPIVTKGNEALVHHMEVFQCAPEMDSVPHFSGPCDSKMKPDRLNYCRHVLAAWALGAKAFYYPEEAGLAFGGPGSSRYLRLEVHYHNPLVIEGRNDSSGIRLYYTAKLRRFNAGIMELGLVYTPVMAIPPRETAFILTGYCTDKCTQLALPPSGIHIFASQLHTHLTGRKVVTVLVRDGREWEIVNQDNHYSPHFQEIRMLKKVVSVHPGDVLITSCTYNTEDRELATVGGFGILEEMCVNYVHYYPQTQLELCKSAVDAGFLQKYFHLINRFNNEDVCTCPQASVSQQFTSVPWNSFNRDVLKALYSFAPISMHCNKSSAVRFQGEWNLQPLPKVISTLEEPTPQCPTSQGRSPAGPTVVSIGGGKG
Conditions: reported by Runti et al., Il Farmaco Ed. Sci. 36, 260 (1980); cited from earlier work.

On to `Fc1cccc(Cn2ncnc2S)c1` [1-(3ʹ-Fluorobenzyl)-1,2,4-triazole-5-thiol], for which the blood pressure reductions result in experiment [1] (50 mg/kg intraperitoneal dose, one hour after dose) is recorded as “approximately 20%”. In addition, the “blood pressure less than controls” value in experiment [1] (50 mg/kg intraperitoneal dose, when blood pressure monitoring was terminated) is given as “approximately 20%”.
Turning to `Sc1ncnn1Cc1ccccc1` [1-benzyl-1,2,4-triazole-5-thiol, 1-Benzyl-1,2,4-triazole-5-thiol], the “blood pressure below that of controls” value in experiment [1] (100 mg/kg orally, 20 minutes following treatment, vs vehicle-treated controls) is “approximately 5%”. Moreover, the “blood pressure nadir, less than controls” value in experiment [1] (100 mg/kg orally, 240 minutes after compound treatment, vs vehicle-treated controls) was “approximately 20%”.
On to phenylpicolinic acid, for which the “inhibitory activity relative to fusaric acid” value at DBH is reported as “twice the inhibitory activity of fusaric acid”.
